# Source: patent publication US10941384B2, “Compositions and methods for promoting the generation of endocrine cells” (President and Fellows of Harvard College, priority 2013, dated 2021)
# What was measured:
# [1] = tested on: HUES8 pancreatic progenitors; experiment: Insulin cell number in HUES8 pancreatic progenitors in the presence of Noggin and Alk5 inhibitors; format: cell-based, human; details: HUES8, 6 days, in the presence of Noggin and Alk5 inhibitor, versus DMSO
# From the text: FIGS. 1A-1K show high-content screens to increase the number of NGN3-expressing and insulin-expressing cells. FIG. 1A is a schematic showing the stepwise differentiation from hESCs to pancreatic endocrine cells. DE, definitive endoderm; PP, pancreatic progenitor; EP, endocrine progenitor; EN, endocrine cells. Scheme of high-content screen beginning with a population of cells that have differentiated into pancreatic progenitors. FIGS. 1B and 1F are schematic diagrams showing the method of high-content screen, which begins with a population of cells that have differentiated into pancreatic progenitors. FIGS. 1C and 1G show the chemical structures of a PKCβ inhibotor and Bisindolylmaleimide I compound identified from the screen. FIGS. 1D and 1H show an efficacy curve of the hit compounds. […] The hit compounds effect on HUES 8-pancreatic progenitor population. After 14 d of differentiation, the HUES 8-pancreatic progenitor populations were treated with 10 M PKCβ inhibitor for four days and then stained with NGN 3 antibody (green). NGN3, neurogenin 3. Scale bar is 100 m. […] Percentage of insulin-positive cells with s.d. […] The percentage of NGN3^+ cells was analyzed with the Cellomics high content screening system (Thermo Scientific). […] Insulin cell number with was counted over the same area in different wells. […]
# [2] = tested on: INS, GCG and SST transcripts (H1-derived pancreatic progenitors); experiment: qRT-PCR of endocrine hormone transcripts (INS, GCG, SST); format: cell-based, human; details: 3 day treatment
# From the text: FIGS. 3A-3D show PKC agonists block the formation of insulin-expressing cells. […] Wells were stained for insulin and cell number counted in representative portions of the well by the Cellomics high content screening system. Error bars represent s.d. Two-tailed T-test p<0.05. […] Endocrine induction is blocked by PKC agonist TPB and reversed by Bis1. […] P<0.001. The decrease in INS and GCG expression due to TPB treatment is reversed by BisI. […] P<0.001.
# H1-derived pancreatic progenitors were treated for 3 days with DMSO or 3 μM BisI. qRT-PCR for INS, GCG and SST performed and shown as fold change over DMSO control.
# [3] = tested on: Human C-peptide / insulin-expressing cells (H1-derived pancreatic progenitors); experiment: High-content screen 2 and dose response: insulin-expressing cells by immunofluorescence (Cellomics); format: cell-based; details: for auto-fluorescence and toxicity in dose-curve measurements: at 6.75 M and 27 M
# Procedure: hESC culture and differentiation. Protocol 2. Human ESCs were routinely cultured on hESC-certified matrigel (BD Biosciences) in mouse embryonic fibroblast conditioned hES media (MEF-CM). MEF-CM media was produced by conditioning hESC media for […] on a confluent layer of mouse embryonic fibroblasts and subsequently adding 20 ng/ml bFGF (Invitrogen). hES media was composed of DMEM/F12 (GIBCO) media supplemented with 20% KnockOut Serum Replacement (GIBCO), 2 mM Lglutamine (L-Glu, GIBCO), 1.1 mM 2-mercaptoethanol (GIBCO), 1 mM nonessential amino acids (GIBCO), 1× penicillin/strepto-mycin (P/S,GIBCO). Cells were passaged at the ratio of 1:6-1:20 every 4-7 days using TrypLE Express (Invitrogen).
# To initiate differentiation the cells were dissociated using TrypLE Express to single cells and seeded at 150,000 cell/cm2 onto 1:30 dilution of growth factor reduced matrigel (BD Biosciences) in DMEM/F12 in MEF-CM media with 10 μM Y27632 (StemGent). Two days following seeding the differentiation was started. Cells were exposed to RPMI 1640 (Invitrogen) supplemented with 2% reagent grade BSA (Proliant) and 20 ng/ml human Wnt3a (R&D Systems)+100 ng/ml rhActivinA (R&D Systems)+8 ng/ml bFGF (Invitrogen) for the first day (stage 1.1). During day 2 and 3 the dayl media was used with the exception of Wnt3a (stage 1.2). During days 4-5 cells were treated with RPMI+2% BSA+50 ng/ml FGF7 (Peprotech) (stage 2). For days 6-9 cells were treated with DMEM-HG (Invitrogen)+0.1% Albumax BSA (Invitrogen)+1:200 ITS-X (Invitrogen)+50 ng/ml FGF7 (Peprotech)+2 μM RA (Sigma)+0.25 μM SANT-1 (Sigma)+20 ng/ml rhActivinA (R&D Systems)+100 ng/ml rhNoggin (R&D Systems) (stage 3). During days 10-12 cells were treated with DMEM-HG (Invitrogen)+0.1% Albumax BSA (Invitrogen)+1:200 ITS-X (Invitrogen)+100 ng/ml rhNoggin (R&D Systems)+0.25 μM SANT-1 (Sigma)+100 nM PDBu (EMD Biosciences) (stage 4). During days 13-15 cells were treated with DMEM-HG (Invitrogen)+0.1% Albumax BSA (Invitrogen)+1:200 ITS-X (Invitrogen)+100 ng/ml rhNoggin (R&D Systems)+1 μM Alk5 inhibitor (Axxora) (stage 5). PKC inhibitor Bisindolylmaleimide I (VWR) was added during stage 5.
# High-content screen 2. The compound libraries used for this study: 400 compounds, including bioactive molecules, natural products, and 400 compounds that are known modulators of development or signaling pathways. For the chemical screen the day 8 cells were dispersed into single cells, using TrypLE, and replated at 150,000 cells/well of a 96 well plate in the presence of stage 3 media and 10 μM Y27632. Compounds were added to the wells on day 10 in stage 4 media, then again on days 12 and 14 in stage 5 media. Media was changed every other day suing the treatment. Cells were fixed using 4% paraformaldehyde (PFA, Sigma) on day 15 and stained using mouse antiglucagon and rabbit anti-c-peptide antibodies.
# Screen 2: Immunostaining. Following 4% PFA fixation, cells were 3×5 min washed in PBS and blocked with 10% donkey serum (Jackson Immunoresearch) in PBS/0.3% Triton X. Primary antibodies were incubated overnight at 4 C. Secondary antibodies were incubated for 1 hr at room temperature. […]
smiles,measurement,setting,value
"CN(C)CCCn1cc(C2=C(c3c[nH]c4ccccc34)C(=O)NC2=O)c2ccccc21 [BisI, Bisindolylmaleimide I]",increase of the numbers of insulin-expressing cells,[1],up to 7.5 fold
same,effect of TPB on INS and GCG expression in the presence of BisI,[2]; 3 M BisI + 5 M TPB,reversed
same,insulin-expressing cells,"[3]; 1 M BisI, 6 days, DMSO-treated controls 0.9 0.1%",up to 2.7 0.8%
same,EC50,"[3]; Homo sapiens, H1, with Noggin and Alk5 inhibitor, FIG. 1H, read-out: EC50, total number of insulin-expressing cells",0.848 µM
same,auto-fluorescence and toxicity in dose-curve measurements,[3],Significant auto-fluorescence and toxicity
same,auto-fluorescence and toxicity in dose-curve measurements,[3]; listed as Bisindolylmaleimide I,considerable auto-fluorescence and toxicity
"CCCC(=O)O[C@@H]1[C@@H](C)[C@@]2(O)[C@@H](C=C(CO)C[C@]3(O)C(=O)C(C)=C[C@@H]23)[C@@H]2C(C)(C)[C@]12OC(=O)CCC [PdBu, phorbol 12,13-dibutyrate]","decline in endocrine differentiation, number of insulin+ cells","[3]; three-day treatment of H1-derived pancreatic progenitors (FIG. 3A: 1 M, 6 days)",3.7 fold
"CC(C)[C@H]1C(=O)N[C@H](CO)Cc2cc(NC(=O)/C=C/C=C/c3ccc(C(F)(F)F)cc3)ccc2N1C [TPB, (2S,5S)-(E,E)-8-(5-(4-(trifluoromethyl)phenyl)-2,4-pentadienoylamino)benzolactam]",expression of endocrine hormones insulin and glucagon,[2]; 5 M TPB,decrease
same,effect on endocrine induction by Alk5 inhibitor (INS and GCG transcripts),[2]; TPB combined with Alk5 inhibitor,sufficient to block the effect of Alk5 inhibitors on endocrine induction
